US20090105238A1, “Compounds and Relative use for the Control of Phytopathogens” (ISAGRO RICERCA S.r.l, priority 2005, published 2009)

How the values were obtained:
[1] = test system: Plasmopara viticola; assay: Fungicidal (preventive) activity against Peronospora of vines, leaf spray; type: in vivo, Plasmopara viticola on vine (cultivar Dolcetto); conditions: for Activity 125 ppm / Activity 250 ppm: 7-day preventive activity; for Activity 125 ppm: scale 0 to 100 (healthy plant); for Activity 250 ppm: scale 0 (completely infected plant) to 100 (healthy plant); for Activity (dose ppm): 7-day preventive, scale 0-100
Protocol: Determination of the Fungicidal Activity Against Peronospora of Vines (Plasmopara viticola) […] After remaining 24 hours in a conditioned environment, the plants were sprayed on both sides of the leaves with an aqueous suspension of conidia of Plasmopara viticola (20,000 conidia per cm^3). The plants are kept in a humidity saturated environment at 21° C. for the incubation period of the fungus.

[2] = test system: Erysiphe graminis; assay: Fungicidal (preventive) activity against oidium of wheat, leaf spray; type: in vivo, Erysiphe graminis on wheat (cultivar Gemini); conditions: 5-day preventive, scale 0-100
Protocol: Determination of the Fungicidal Activity Against Oidium of Wheat (Erysiphe graminis)
(§1) Leaves of wheat plants (cultivar Gemini), grown in vases in a conditioned environment (20±1° C., 70% relative humidity) are treated by spraying both sides of the leaves with compounds 1, 2 and 3, dispersed in a hydroacetone solution at 20% by volume in acetone. […]
(§2) The plants are kept in a humidity saturated environment at a temperature ranging from 18 to 24° C. for the incubation period of the fungus.
At the end of this period (12 days), the fungicidal activity is evaluated according to an evaluation percentage scale from 0 (completely infected plant) to 100 (healthy plant).

[3] = test system: Puccinia recondita; assay: Fungicidal (preventive) activity against wheat rust, leaf spray; type: in vivo, Puccinia recondita on wheat (cultivar Gemini); conditions: 5-day preventive, scale 0-100
Protocol: Determination of the Fungicidal Activity Against Wheat Rust (Puccinia recondita)
as §1, §2
At the end of this period (14 days), the fungicidal activity is evaluated according to an evaluation percentage scale from 0 (completely infected plant) to 100 (healthy plant).

[4] = test system: PR1; assay: Gene response (PR1 expression, quantitative PCR) in treated seedlings; type: in vivo, arabidopsis thaliana; conditions: 800 ppm and 1600 ppm; leaves collected after 24 hours of treatment; compared with blank and glycine betaine (FIG. 1)
Protocol: Determination of the Gene Response of the Compounds Having General Formula (I) and their Mixtures with Other Fungicides
Four-week-old seedlings of arabidopsis thaliana were treated with the compounds having general formula (I) or their mixtures with other fungicides and the leaves were collected after 24 hours of treatment.
The total RNA was extracted from 0.05 g of fresh tissue using the “Genelute mammalian total RNA kit (Sigma)” according to the protocol indications. The cDNA were synthesized using “RevertAid™ M-MuLV Reverse Transcriptase” commercialized by Fermentas Life Sciences according to the following protocol: 2 μg of total RNA were mixed with 0.5 μg of oligo(dT) 18.
Deionized water (nuclease free) was then added to bring the reaction volume to 11 μl, the reaction was subsequently incubated at 70° C. for 5 minutes and then cooled in ice.
The following reagents were then added to the mixture:
4 μl of 5× reaction buffer, 10 mM of dNTP mix, 20 units of Ribonuclease inhibitor.
The reaction was incubated at 37° C. for 5 minutes, 200 units of RevertAid™ M-MuLV Reverse Transcriptase were subsequently added to the mixture and the reaction was incubated at 42° C. for 60 minutes. […]
A quantitative PCR analysis was effected on the cDNA using a mixture of primer/competimers of the ribosomal RNA 18S as internal standard in a ratio of 9:1. […]

Molecule	Activity 125 ppm [1]	Activity 250 ppm [1]	further results
CCCCCCCCCCCC[N+](C)(C)CC(O)CS(=O)(=O)[O-] (centres unmarked) [Compound 5, Laurylhydroxysultaine]	85	99	
CCCCCCCCCCCC(=O)NCCC[N+](C)(C)CC(=O)[O-] [Compound 7, Laurylamidopropylbetaine]	95	100	
CCCCCCCCCCCC(=O)NCCC[N+](C)(C)C(C(=O)[O-])C(C)C (centres unmarked) [Compound 24, laurylamidopropyl[L]valinebetaine]	88	99	
CCCCCCCCCCCC(=O)NCCC[N+]1(C)CCCC1C(=O)[O-] (centres unmarked) [Compound 25, laurylamidopropyl[L]prolinebetaine]	95	100	
CCCCCCCCCCCC(=O)NCCC[N+](C)(C)C(C)C(=O)[O-] (centres unmarked) [Compound 26, laurylamidopropyl[L]alaninebetaine]	90	95	
CCCCCCCCCCCC(=O)NCCC[N+](C)(C)C(CC(=O)[O-])c1ccccc1 (stereo not drawn) [Compound 28, laurylamidopropyl- β-phenylalaninebetaine]	90	99	
CCCCCCCCCCCC(=O)NCCC[N+](C)(C)C(CC(=O)[O-])c1ccc(Cl)cc1 (stereo not drawn) [Compound 29, laurylamidopropyl-β-4-chlorophenylalaninebetaine]	90	95	
CCCCCCCCCCCC(=O)NCCC[N+](C)(C)CCC(=O)[O-] [Compound 30, laurylamidopropyl- β-alaninebetaine]	85	90	
C[N+](C)(C)CC(=O)[O-] [Glycine betaine, reference compound]			Activity (dose ppm) ([1]; 30 ppm): 30
COC(=O)CC(NC(=O)[C@@H](NC(=O)OC(C)C)C(C)C)c1ccc(Cl)cc1 (some centres unmarked) [IR5885, reference compound]			Activity (dose ppm) ([1]; 0.22 ppm): 15; Activity (dose ppm) ([1]; 0.45 ppm): 41; Activity (dose ppm) ([2]; 500 ppm): 20; Activity (dose ppm) ([3]; 500 ppm): 15
FC(F)C(F)(F)OCC(Cn1cncn1)c1ccc(Cl)cc1Cl (centres unmarked) [Tetraconazole, tetraconazole]			Activity (dose ppm) ([1]; 30 ppm): 20; Activity (dose ppm) ([2]; 1.8 ppm): 48; Activity (dose ppm) ([3]; 30 ppm): 58
Cholanylamidopropylbetaine [Compound 11]	90	94	
Cholesterylcarbonylamidopropylbetaine [Compound 10]	90	95	
Cocamidopropyl- β-4-chlorophenylalaninebetaine [Compound 36]	85	94	
Cocamidopropyl- β-alaninebetaine [Compound 37]	86	98	
Cocamidopropyl-β-phenylalaninebetaine [Compound 35]	89	95	
Cocamidopropyl[L]phenylglycinebetaine [Compound 34]	88	97	
Cocamidopropyl[L]prolinebetaine [Compound 32]	88	95	
Cocamidopropyl[L]valinebetaine [Compound 31]	85	98	
Cocamidopropylbetaine [Compound 8]	98	100	Activity (dose ppm) ([1]; 30 ppm): 30; Activity (dose ppm) ([2]; 500 ppm): 20 (500 ppm); Activity (dose ppm) ([3]; 125 ppm): 29 (125 ppm); gene response [4]: exceptional gene response
Cocamidopropylhydroxysultaine [Compound 9]	95	100	
cocamidopropyl[L]alaninebetaine [Compound 33]	85	96	
